{
  "source": "patent US20260137790A1",
  "about": "“MIXED VASOPRESSIN RECEPTOR AGONIST-ANTAGONIST FOR MODULATING MEAN ARTERIAL PRESSURE” (FERRING B.V., priority 2022, published 2026)",
  "key": {"[1]": {"assay": "SC (bolus) injection of high/low buffer compositions in rats: bioavailability, M1 formation", "type": "in vivo, rat", "details": "rat, in vivo, sc, bioavailability of Compound 1, rats"}, "[2]": {"test_system": "methionine/choline-deficient (MCD) diet rats", "assay": "Methionine/choline-deficient (MCD) diet rat model, MAP and portal pressure", "details": "for Δ MAP, mean / Δ PP, mean: 100 μg/kg IA"}, "[3]": {"test_system": "adult male cynomolgus monkeys", "assay": "Telemetry MAP in healthy monkeys, Compound 1 versus terlipressin", "type": "in vivo, cynomolgus monkey", "details": "monkey", "procedure": "The in-life portion of the study was performed over multiple dosing sessions using six non-naive adult male cynomolgus monkeys. Animals were previously (3-4 weeks before study start) instrumented with indwelling pressure telemetry devices and trained to be restrained in chairs. Animals had access to food and drinking water ad libitum.\nStock solutions were diluted in saline on the day of administration. Animals with indwelling pressure telemetry devices were trained to be restrained in chairs for 8-h periods.\nOn the day of administration, animals were restrained, and telemetric measurements were collected continuously starting ≥2 h before administration. Baseline values of arterial pressure (diastolic and systolic), heart rate, and body temperature were obtained. […].\nThe data reported herein were collected over 19 dosing sessions of four animals each, using a total of six monkeys. Animals were repeat dosed in a crossover design with at least one animal receiving vehicle for each round; the animal receiving vehicle was varied between rounds. A 48- to 72-h washout period was used between dosing sessions. Animals were observed by camera for ˜1 h before dosing (covering the baseline period) and up to 3 h after dosing."}},
  "note": "Starred links: 1 amine or outer side, 2 acyl side, 3 side chain; linkers in the order of their positions; H or OH if unused. Positions of bridges follow the written chain, without caps; N, C: chain ends. Non-standard residues stand in square brackets, D forms with d. Residues, ends and D or L forms follow the SMILES beside them. Chains are numbered I, II in the order given. *: point of attachment. isoGln = NC(=O)[C@H](CCC(=O)[*:2])N[*:1]; εLys = N[C@@H](CCCCN[*:1])C(=O)[*:2]; Dab = NCC[C@H](N)C(=O)O; PhAc = O=C(Cc1ccccc1)*",
  "data": [
    {"smiles": "CC[C@H](C)[C@@H]1NC(=O)[C@H](Cc2ccccc2)NC(=O)[C@@H](N)CSSC[C@@H](C(=O)N2CCC[C@H]2C(=O)N[C@@H](CCNC(=O)[C@@H](N)CCCCNC(=O)[C@H](CCCCNC(C)=O)NC(=O)CC[C@H](NC(=O)[C@H](CCCNC(=N)N)NC(=O)[C@@H]2CCCN2C(=O)[C@H](C)NC(=O)[C@H](CC(N)=O)NC(=O)[C@H](CCC(N)=O)NC(=O)[C@H](Cc2ccccc2)NC(=O)[C@@H](Cc2ccc(OC)cc2)NC(=O)Cc2ccccc2)C(N)=O)C(=O)NCC(N)=O)NC(=O)[C@H](CC(N)=O)NC(=O)[C@H](CCC(N)=O)NC1=O", "note": "[Compound 1] (I: H-CFIQNCP[Dab]G-NH2 / II: PhAc-[dY](Me)FQNAPR[isoGln]K(Ac)[εLys]; disulfide I:1-I:6; amide I:8-II:C)", "values": [
      {"measurement": "bioavailability", "setting": "[1]; buffer about 10 mM", "value": "~13", "unit": "%"},
      {"measurement": "bioavailability", "setting": "[1]; buffer about 100 mM", "value": "~37", "unit": "%"}
    ]},
    {"smiles": "NCCCC[C@H](NC(=O)[C@@H]1CCCN1C(=O)[C@@H]1CSSC[C@H](NC(=O)CNC(=O)CNC(=O)CN)C(=O)N[C@@H](Cc2ccc(O)cc2)C(=O)N[C@@H](Cc2ccccc2)C(=O)N[C@@H](CCC(N)=O)C(=O)N[C@@H](CC(N)=O)C(=O)N1)C(=O)NCC(N)=O", "note": "[Terlipressin] (H-GGGCYFQNCPKG-NH2; disulfide 4-9)", "values": [
      {"measurement": "Δ MAP, mean", "setting": "[2]; 0 min", "value": 0.0, "unit": "mmHg"},
      {"measurement": "Δ PP, mean", "setting": "[2]; 0 min", "value": 0.0, "unit": "mmHg"},
      {"measurement": "Δ MAP, mean", "setting": "[2]; 1 min", "value": 6.1, "unit": "mmHg"},
      {"measurement": "Δ PP, mean", "setting": "[2]; 1 min", "value": "−1.5", "unit": "mmHg"},
      {"measurement": "Δ MAP, mean", "setting": "[2]; 2 min", "value": 10.8, "unit": "mmHg"},
      {"measurement": "Δ PP, mean", "setting": "[2]; 2 min", "value": "−2.1", "unit": "mmHg"},
      {"measurement": "Δ MAP, mean", "setting": "[2]; 3 min", "value": 18.1, "unit": "mmHg"},
      {"measurement": "Δ PP, mean", "setting": "[2]; 3 min", "value": "−2.3", "unit": "mmHg"},
      {"measurement": "Δ MAP, mean", "setting": "[2]; 5 min", "value": 26.3, "unit": "mmHg"},
      {"measurement": "Δ PP, mean", "setting": "[2]; 5 min", "value": "−2.4", "unit": "mmHg"},
      {"measurement": "Δ MAP, mean", "setting": "[2]; 7 min", "value": 30.1, "unit": "mmHg"},
      {"measurement": "Δ PP, mean", "setting": "[2]; 7 min", "value": "−2.5", "unit": "mmHg"},
      {"measurement": "Δ MAP, mean", "setting": "[2]; 10 min", "value": 32.0, "unit": "mmHg"},
      {"measurement": "Δ PP, mean", "setting": "[2]; 10 min", "value": "−2.4", "unit": "mmHg"},
      {"measurement": "Δ MAP, mean", "setting": "[2]; 15 min", "value": 32.9, "unit": "mmHg"},
      {"measurement": "Δ PP, mean", "setting": "[2]; 15 min", "value": "−2.5", "unit": "mmHg"},
      {"measurement": "Δ MAP, mean", "setting": "[2]; 20 min", "value": 33.5, "unit": "mmHg"},
      {"measurement": "Δ PP, mean", "setting": "[2]; 20 min", "value": "−2.6", "unit": "mmHg"},
      {"measurement": "Δ MAP, mean", "setting": "[2]; 30 min", "value": 31.7, "unit": "mmHg"},
      {"measurement": "Δ PP, mean", "setting": "[2]; 30 min", "value": "−2.5", "unit": "mmHg"},
      {"measurement": "Δ MAP, mean", "setting": "[2]; 60 min", "value": 13.3, "unit": "mmHg"},
      {"measurement": "Δ PP, mean", "setting": "[2]; 60 min", "value": "−2.8", "unit": "mmHg"},
      {"measurement": "Δ MAP, mean", "setting": "[2]; 90 min", "value": 5.2, "unit": "mmHg"},
      {"measurement": "Δ PP, mean", "setting": "[2]; 90 min", "value": "−0.8", "unit": "mmHg"},
      {"measurement": "highest observed absolute MAP", "setting": "[2]; 100 μg/kg intra-arterial", "value": "116.6±4.1", "unit": "mmHg"},
      {"measurement": "maximum ΔMAP", "setting": "[2]; 100 μg/kg intra-arterial", "value": "33.5±2.6", "unit": "mmHg"},
      {"measurement": "maximum ΔPP", "setting": "[2]; 100 μg/kg intra-arterial", "value": "−2.8±0.8", "unit": "mmHg"},
      {"measurement": "average increase in MAP between 30 min and 5 h", "setting": "[3]; IV bolus 0.03 mg/kg", "value": 6.0, "unit": "mmHg"},
      {"measurement": "maximum MAP increase from baseline", "setting": "[3]; IV bolus 0.03 mg/kg", "value": "29.6±3.6", "unit": "mmHg"},
      {"measurement": "average increase in MAP between 30 min and 5 h", "setting": "[3]; IV bolus 0.09 mg/kg", "value": 5.8, "unit": "mmHg"},
      {"measurement": "maximum MAP increase from baseline", "setting": "[3]; IV bolus 0.09 mg/kg", "value": "29.9±6.2", "unit": "mmHg"},
      {"measurement": "average increase in MAP between 30 min and 5 h", "setting": "[3]; IV bolus 0.17 mg/kg", "value": 14.6, "unit": "mmHg"},
      {"measurement": "maximum MAP increase from baseline", "setting": "[3]; IV bolus 0.17 mg/kg", "value": "50.8±5.6", "unit": "mmHg"},
      {"measurement": "average increase in MAP between 30 min and 5 h", "setting": "[3]; IV bolus 0.34 mg/kg", "value": 14.7, "unit": "mmHg"},
      {"measurement": "maximum MAP increase from baseline", "setting": "[3]; IV bolus 0.34 mg/kg", "value": "41.2±7.5", "unit": "mmHg"},
      {"measurement": "time of maximum MAP increase", "setting": "[3]; IV bolus, across groups", "value": "5 to 30", "unit": "min"},
      {"measurement": "time by which Δ MAP was negligible", "setting": "[3]; IV bolus, all groups", "value": 150, "unit": "min"}
    ]}
  ]
}
